{
  "source": "patent US20210346425A1",
  "about": "“BOTANICAL FILM-FORMING ACNE COMPOSITIONS” (priority 2018, published 2021)",
  "key": {"[1]": {"assay": "Zone of inhibition test of salicylic acid and botanicals in FGZ base", "format": "cell-based", "conditions": "ingredients in FGZ base; test organism not given", "procedure": "Various botanicals, salicylic acid and combinations were mixed in FGZ gel and antibacterial efficacy was evaluated.\nTable 1: Antibacterial Activity of Salicylic Acid and Botanicals in FGZ Base (Zone of Inhibition Test)"}, "[2]": {"system": "S. aureus", "assay": "Rapid kill (15 seconds) suspension test, ASTM E2783-11", "format": "cell-based", "conditions": "15 seconds contact, ingredient in FGZ gel, log 10 reduction of 3.0 or higher counts as effective", "procedure": "Table 2: Antibacterial Activity (Rapidity of Kill Test Organism S. aureus)\nRapid kill (15 seconds) test tube method described in ASTM-E2783-1198751-1 (suspension test).\nIn vitro rapid-kill test was carried out according to ASTM E2783-11; 10^8 CFU mL^−1 microbial cultures were prepared in a TSA media in order to determine the antimicrobial activity of acne formulations. 0.9 mL acne formulation was kept in contact with 0.1 mL microbial cultures for 15 seconds and subsequently neutralized using agent DE. PBS was used as a control."}},
  "data": [
    {"smiles": "O=C(O)c1ccccc1O", "note": "[Salicylic acid 2%, Salicylic acid]", "values": [
      {"measurement": "Zone of inhibition (mm)", "setting": "[1]", "value": 1, "unit": "mm"},
      {"measurement": "Log reductrion from control growth", "setting": "[2]", "value": 2.1}
    ]},
    {"smiles": "[H]/N=C(\\N/C(=N/[H])NCCCCCCNC(=N)NC(=N)Nc1ccc(Cl)cc1)Nc1ccc(Cl)cc1", "note": "[chlorhexidine gluconate]", "values": [
      {"measurement": "Log reductrion from control growth", "setting": "[2]", "value": 0.2}
    ]}
  ]
}
